Measurements as given in PubChem BioAssay (NCI).
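Compound exposure: 48 hours, 5 concentrations, 96-well plates. Here, GI50 denotes the concentration required for 50% inhibition of growth. TGI marks complete inhibition of growth.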

What was measured:
Test in all cases: NCI tumour cell line growth inhibition, 48 h; in the data active = GI50 below about 0.43 µM; inactive = the rest
A498 renal = test system: A498 renal
A549 NSCLC = test system: A549 NSCLC
ACHN renal = test system: ACHN renal
CCRF-CEM leukemia = test system: CCRF-CEM leukemia
COLO 205 colon = test system: COLO 205 colon
DU-145 prostate = test system: DU-145 prostate
EKVX NSCLC = test system: EKVX NSCLC
HCT-15 colon = test system: HCT-15 colon
HOP-62 NSCLC = test system: HOP-62 NSCLC
K-562 leukemia = test system: K-562 leukemia
KM12 colon = test system: KM12 colon
LOX IMVI melanoma = test system: LOX IMVI melanoma
M14 melanoma = test system: M14 melanoma
MDA-MB-435 = test system: MDA-MB-435
MDA-N = test system: MDA-N
MOLT-4 leukemia = test system: MOLT-4 leukemia
NCI-H23 lung = test system: NCI-H23 lung
NCI-H460 lung = test system: NCI-H460 lung
NCI/ADR-RES ovarian = test system: NCI/ADR-RES ovarian
OVCAR-4 ovarian = test system: OVCAR-4 ovarian
OVCAR-5 ovarian = test system: OVCAR-5 ovarian
OVCAR-8 ovarian = test system: OVCAR-8 ovarian
PC-3 prostate = test system: PC-3 prostate
RPMI-8226 leukemia = test system: RPMI-8226 leukemia
SF-268 CNS = test system: SF-268 CNS
SF-295 CNS = test system: SF-295 CNS
SF-539 CNS = test system: SF-539 CNS
SK-MEL-2 melanoma = test system: SK-MEL-2 melanoma
SK-MEL-5 melanoma = test system: SK-MEL-5 melanoma
SK-OV-3 ovarian = test system: SK-OV-3 ovarian
SN12C renal = test system: SN12C renal
SNB-19 CNS = test system: SNB-19 CNS
SNB-75 CNS = test system: SNB-75 CNS
SR leukemia = test system: SR leukemia
SW-620 colon = test system: SW-620 colon
T-47D breast = test system: T-47D breast
TK-10 renal = test system: TK-10 renal
UACC-257 melanoma = test system: UACC-257 melanoma
UACC-62 melanoma = test system: UACC-62 melanoma
UO-31 renal = test system: UO-31 renal
HCC-2998 colon = test system: HCC-2998 colon
HCT-116 colon = test system: HCT-116 colon
HL-60(TB) leukemia = test system: HL-60(TB) leukemia
HT29 colon = test system: HT29 colon
MALME-3M melanoma = test system: MALME-3M melanoma
MCF7 breast = test system: MCF7 breast
MDA-MB-231 breast = test system: MDA-MB-231 breast
NCI-H522 lung = test system: NCI-H522 lung
SK-MEL-28 melanoma = test system: SK-MEL-28 melanoma
U251 CNS = test system: U251 CNS

CC(=O)O[C@H]1C(=O)[C@@]2(C)[C@H]([C@H](OC(=O)c3ccccc3)[C@]3(O)C[C@H](OC(=O)[C@H](O)[C@@H](NC(=O)c4ccoc4)c4ccccc4)C(C)=C1C3(C)C)[C@]1(OC(C)=O)CO[C@@H]1C[C@@H]2O
0.257 µM: TGI (SF-539 CNS)
22.9 µM: TGI (SF-295 CNS)
0.039 µM: TGI (MDA-MB-435)
32.7 µM: TGI (SK-OV-3 ovarian)
31.2 µM: TGI (NCI-H23 lung)
28 µM: TGI (NCI-H460 lung)
40.4 µM: TGI (TK-10 renal)
0.091 µM: TGI (OVCAR-5 ovarian)
0.0166 µM: TGI (MDA-N)
0.698 µM: TGI (A498 renal)
31.9 µM: TGI (UACC-62 melanoma)
16.4 µM: TGI (HOP-62 NSCLC)
14.1 µM: TGI (KM12 colon)
active: GI50 (ACHN renal) 0.0584 µM | GI50 (CCRF-CEM leukemia) 0.0334 µM | GI50 (K-562 leukemia) 0.0337 µM | GI50 (MOLT-4 leukemia) 0.042 µM | GI50 (SNB-75 CNS) 0.0531 µM | GI50 (TK-10 renal) 0.164 µM
> 100 µM: TGI (A549 NSCLC) | TGI (ACHN renal) | TGI (CCRF-CEM leukemia) | TGI (DU-145 prostate) | TGI (EKVX NSCLC) | TGI (HCT-15 colon) | TGI (K-562 leukemia) | TGI (LOX IMVI melanoma) | TGI (MOLT-4 leukemia) | TGI (NCI/ADR-RES ovarian) | TGI (OVCAR-4 ovarian) | TGI (PC-3 prostate) | TGI (RPMI-8226 leukemia) | TGI (SF-268 CNS) | TGI (SN12C renal) | TGI (SNB-19 CNS) | TGI (SW-620 colon) | TGI (T-47D breast) | TGI (UO-31 renal)
inactive: GI50 (EKVX NSCLC) 17.2 µM | GI50 (HCT-15 colon) 0.907 µM | GI50 (SK-MEL-2 melanoma) 27.8 µM | GI50 (T-47D breast) 26.3 µM
0.661 µM: TGI (M14 melanoma)
68.5 µM: TGI (UACC-257 melanoma)
16.9 µM: TGI (COLO 205 colon)
47.8 µM: TGI (OVCAR-8 ovarian)
0.399 µM: TGI (SK-MEL-5 melanoma)
47 µM: TGI (SR leukemia)

CCOC(=O)C(NC(=O)CC)(C(F)(F)F)P(=O)(OCC)OCC (stereo not given)
> 100 µM: TGI (A498 renal) | TGI (ACHN renal) | TGI (CCRF-CEM leukemia) | TGI (DU-145 prostate) | TGI (EKVX NSCLC) | TGI (HCC-2998 colon) | TGI (HCT-116 colon) | TGI (HCT-15 colon) | TGI (HL-60(TB) leukemia) | TGI (HOP-62 NSCLC) | TGI (HT29 colon) | TGI (K-562 leukemia) | TGI (M14 melanoma) | TGI (MALME-3M melanoma) | TGI (MCF7 breast) | TGI (MDA-MB-231 breast) | TGI (MDA-MB-435) | TGI (MDA-N) | TGI (MOLT-4 leukemia) | TGI (NCI-H522 lung) | TGI (RPMI-8226 leukemia) | TGI (SF-268 CNS) | TGI (SF-539 CNS) | TGI (SK-MEL-28 melanoma) | TGI (SK-OV-3 ovarian) | TGI (SN12C renal) | TGI (SNB-75 CNS) | TGI (SR leukemia) | TGI (T-47D breast) | TGI (U251 CNS) | TGI (UACC-62 melanoma) | TGI (UO-31 renal)
